How the values were obtained:
HDAC1 = HDAC1 (Homo sapiens (Human), UniProt Q13547); test: HDAC enzyme activity inhibition (in vitro), HDAC1 Fluorimetric Drug Discovery Assay Kit; assay type: biochemical; conditions: samples at 100, 1000 and 10000 nM; 37° C. 60 minutes; fluorescence Ex 390, Em 460
HDAC6 human recombinant = HDAC6 human recombinant (Homo sapiens (Human), UniProt Q9UBN7); test: HDAC enzyme activity inhibition (in vitro), HDAC6 assay; assay type: biochemical; conditions: samples at 0.1, 1, 10, 100 and 1000 nM; 37° C. 60 minutes; fluorescence Ex 390, Em 460
Sequence of HDAC6 human recombinant (Q9UBN7 whole entry): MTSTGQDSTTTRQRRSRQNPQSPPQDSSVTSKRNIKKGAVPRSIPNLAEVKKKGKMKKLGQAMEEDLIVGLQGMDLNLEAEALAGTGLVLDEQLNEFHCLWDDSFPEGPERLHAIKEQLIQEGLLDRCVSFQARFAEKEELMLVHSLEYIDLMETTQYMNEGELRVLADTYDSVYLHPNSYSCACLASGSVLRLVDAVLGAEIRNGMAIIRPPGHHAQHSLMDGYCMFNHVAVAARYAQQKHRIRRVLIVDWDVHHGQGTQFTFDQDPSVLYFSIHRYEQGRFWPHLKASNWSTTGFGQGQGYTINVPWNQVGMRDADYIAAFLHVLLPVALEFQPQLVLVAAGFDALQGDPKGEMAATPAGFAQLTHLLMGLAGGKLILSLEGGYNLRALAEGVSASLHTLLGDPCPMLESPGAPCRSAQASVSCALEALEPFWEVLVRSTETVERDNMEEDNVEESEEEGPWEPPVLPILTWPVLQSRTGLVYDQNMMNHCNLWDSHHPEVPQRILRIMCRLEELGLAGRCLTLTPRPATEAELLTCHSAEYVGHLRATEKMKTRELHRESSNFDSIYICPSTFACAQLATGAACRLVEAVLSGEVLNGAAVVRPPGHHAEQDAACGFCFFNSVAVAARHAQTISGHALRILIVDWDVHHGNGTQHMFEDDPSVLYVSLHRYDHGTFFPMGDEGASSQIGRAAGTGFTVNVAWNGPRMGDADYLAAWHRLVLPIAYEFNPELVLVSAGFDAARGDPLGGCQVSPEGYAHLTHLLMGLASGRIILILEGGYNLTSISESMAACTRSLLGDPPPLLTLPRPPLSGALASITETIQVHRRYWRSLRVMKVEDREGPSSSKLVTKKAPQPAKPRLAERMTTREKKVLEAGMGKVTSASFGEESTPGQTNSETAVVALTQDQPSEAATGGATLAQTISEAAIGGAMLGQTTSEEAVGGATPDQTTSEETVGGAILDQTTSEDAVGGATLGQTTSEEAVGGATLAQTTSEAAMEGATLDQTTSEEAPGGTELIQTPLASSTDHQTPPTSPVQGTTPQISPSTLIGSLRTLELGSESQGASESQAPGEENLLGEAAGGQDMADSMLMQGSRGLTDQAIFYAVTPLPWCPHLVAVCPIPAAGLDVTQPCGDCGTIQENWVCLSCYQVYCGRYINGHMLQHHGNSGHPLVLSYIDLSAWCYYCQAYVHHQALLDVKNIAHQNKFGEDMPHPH

Sequence of HDAC1 (Q13547 whole entry): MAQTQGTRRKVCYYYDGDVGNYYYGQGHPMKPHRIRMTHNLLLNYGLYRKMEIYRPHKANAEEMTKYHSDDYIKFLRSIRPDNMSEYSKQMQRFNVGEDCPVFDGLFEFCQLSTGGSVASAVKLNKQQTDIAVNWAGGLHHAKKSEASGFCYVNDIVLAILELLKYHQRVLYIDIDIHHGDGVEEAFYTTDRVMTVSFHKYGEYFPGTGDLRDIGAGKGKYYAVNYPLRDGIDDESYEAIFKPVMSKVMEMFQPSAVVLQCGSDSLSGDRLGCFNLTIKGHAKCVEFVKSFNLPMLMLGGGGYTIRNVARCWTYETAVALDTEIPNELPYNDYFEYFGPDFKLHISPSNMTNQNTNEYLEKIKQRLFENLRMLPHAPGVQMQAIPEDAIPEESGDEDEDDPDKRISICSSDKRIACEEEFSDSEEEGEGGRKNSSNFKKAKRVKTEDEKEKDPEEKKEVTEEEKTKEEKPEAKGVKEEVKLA

Structure (SMILES)	IC50 (HDAC1) [nM]	IC50 (HDAC6 human recombinant) [nM]
O=c1c2ccccc2n(CCN2CCOCC2)c(=O)n1Cc1ccc(-c2nnc(C(F)F)o2)cn1 [Compound 20, 3-((5-(5-(difluoromethyl)-1,3,4-oxadiazole-2-yl)pyridine-2-yl)methyl)-1-(2-morpholinoethyl)quinazoline-2,4(1H,3H)-dione]	> 10000	159
CC1(C)C(=O)N(Cc2ccc(-c3nnc(C(F)F)o3)cn2)C(=O)c2cc(-c3ccco3)ccc21 [Compound 113, 2-((5-(5-(difluoromethyl)-1,3,4-oxadiazole-2-yl)pyridine-2-yl)methyl)-7-(furan-2-yl)-4,4-dimethylisoquinoline-1,3(2H,4H)-dione]	> 10000	43
O=c1c2ccccc2n(CCN2CCCCC2)c(=O)n1Cc1ccc(-c2nnc(C(F)F)o2)cn1 [Compound 9, 3-((5-(5-(difluoromethyl)-1,3,4-oxadiazole-2-yl)pyridine-2-yl)methyl)-1-(2-(piperidine-1-yl)ethyl)quinazoline-2,4(1H,3H)-dione]	> 10000	126
CN(C)CCn1c(=O)n(Cc2ccc(-c3nnc(C(F)F)o3)cn2)c(=O)c2ccccc21 [Compound 22, 3-((5-(5-(difluoromethyl)-1,3,4-oxadiazole-2-yl)pyridine-2-yl)methyl)-1-(2-(dimethylamino)ethyl)quinazoline-2,4(1H,3H)-dione]	> 10000	210
O=C1c2ccccc2C2(CCC2)C(=O)N1Cc1ccc(-c2nnc(C(F)F)o2)cn1 [Compound 4, 2′-((5-(5-(difluoromethyl)-1,3,4-oxadiazole-2-yl)pyridine-2-yl)methyl)-1′H-spiro[cyclobutane-1,4′-isoquinoline]-1′,3′(2′H)-dione]	> 10000	32

Further lines, results first:

IC50 (HDAC1) [nM]	IC50 (HDAC6 human recombinant) [nM]	Structure (SMILES)
> 10000	15	CN(C)C1CCN(c2ccc3c(c2)C(C)(C)C(=O)N(Cc2ccc(-c4nnc(C(F)F)o4)cn2)C3=O)CC1 [Compound 37, 2-((5-(5-(difluoromethyl)-1,3,4-oxadiazole-2-yl)pyridine-2-yl)methyl)-6-(4-(dimethylamino)piperidine-1-yl)-4,4-dimethylisoquinoline-1,3(2H,4H)-dione]
> 10000	22	CCN1CCN(c2ccc3c(c2)C2(CCC2)C(=O)N(Cc2ccc(-c4nnc(C(F)F)o4)cn2)C3=O)CC1 [Compound 117, 2′-((5-(5-(difluoromethyl)-1,3,4-oxadiazole-2-yl)pyridine-2-yl)methyl)-6′-(4-ethylpiperazine-1-yl)-1′H-spiro[cyclobutane-1,4′-isoquinoline]-1′,3′(2′H)-dione]
> 10000	158	CC(C)(C)OC(=O)N1CCN(c2ccc3c(c2)C(C)(C)C(=O)N(Cc2ccc(-c4nnc(C(F)F)o4)cn2)C3=O)CC1 [Compound 25, tert-butyl 4-(2-((5-(5-(difluoromethyl)-1,3,4-oxadiazole-2-yl)pyridine-2-yl)methyl)-4,4-dimethyl-1,3-dioxo-1,2,3,4-tetrahydroisoquinoline-6-yl)piperazine-1-carboxylate]
> 10000	95	CC(C)CN1CCN(c2ccc3c(c2)C(C)(C)C(=O)N(Cc2ccc(-c4nnc(C(F)F)o4)cn2)C3=O)CC1 [Compound 149, 2-((5-(5-(difluoromethyl)-1,3,4-oxadiazole-2-yl)pyridine-2-yl)methyl)-6-(4-isobutylpiperazine-1-yl)-4,4-dimethylisoquinoline-1,3(2H,4H)-dione]
> 10000	427	CC(C)(C)OC(=O)N1CC=C(c2ccc3c(c2)C(=O)N(Cc2ccc(-c4nnc(C(F)F)o4)cn2)C(=O)C3(C)C)CC1 [Compound 53, tert-butyl 4-(2-((5-(5-(difluoromethyl)-1,3,4-oxadiazole-2-yl)pyridine-2-yl)methyl)-4,4-dimethyl-1,3-dioxo-1,2,3,4-tetrahydroisoquinoline-7-yl)-3,6-dihydropyridine-1(2H)-carboxylate]

Source: US12440484B2, “1,3,4-oxadiazole homophthalimide derivative compounds as histone deacetylase 6 inhibitor, and the pharmaceutical composition comprising the same” (Chong Kun Dang Pharmaceutical Corp., priority 2019, dated 2025)
